“Also recorded” adds a separate entry of the source.

One data set has as its system primary human T cells. The data set is described as follows: Transient transfection of activated primary human T cells with DNA LNPs, GFP expression by flow cytometry. The class given is cell-based. As to the method: Separate compositions of CD4+ and CD8+ cells were selected by immunoaffinity-based enrichment from isolated PBMCs from leukapheresis samples from four healthy human donors. The selected cell compositions were cryopreserved, subsequently thawed and combined in culture at a 1:1 ratio of viable CD4+ to viable CD8+ cells. The combined CD4+ and CD8+ cell composition was then incubated for 48 hours with anti-CD3/CD28 beads (1:1 cell-to-bead ratio) in media containing recombinant IL-2, IL-7, and IL-15 to activate (stimulate) the T cells. […] The cells were cultured in media supplemented with 1 μg/mL of apolipoprotein E4 (ApoE4) to support cellular uptake of the LNPs.
Cells were analyzed by flow cytometry 24 to 48 hours after transfection to determine cell viability and transient GFP expression. Cell viability was determined by quantification of dead cells using SYTOX™ blue dead cell stain and GFP expression was determined via flow cytometry.
Formulations as described in Table E4 were used to transiently transfect human T cells at a 6.0 μg/mL DNA dosing concentration (final concentration with cells), and the effects of varying the described parameters on cell viability and transfection efficiency of T cells were assessed. A combined CD4+ and CD8+ T cell composition was generated and activated substantially as described in Example 2, and incubated in media with […] ApoE4 and LNPs generated from the various formulations for approximately 24 hours at 37° Celsius, 5% CO2, to allow for transfection. Following incubation, cells were assessed for viability and transfection efficiency as described in Example 2. Increasing ionizable lipid mass fraction percentage decreased transfection efficiency (p<0.05; left panel of FIGS. 6A), while there was no statistically significant effect of helper lipid or PEG lipid mass fraction percentage on transfection efficiency (middle and right panels, respectively, of FIG. 6A).
A general note: A flow cytometer gives signals particle by particle.

Data set [1] in a line: DNA loading into LNPs, Quant-iT PicoGreen dsDNA assay. Conditions: Example 4a, Table E14 formulations. The format is physicochemical. As for the experimental part: The resulting LNPs were sized by dynamic light scattering (DLS) before being stored overnight at 5 Celsius. Following overnight incubation, the LNPs were again sized by DLS, and then sterile filtered in a biosafety cabinet. LNPs having an Z-average particle size greater than 200 nm in diameter were filtered using a 0.45 µm filter. All other LNPs were filtered using a 0.2 µm filter. Following sterile filtration, the LNPs were sized a final time by DLS. The LNPs were also assessed for DNA loading, as determined by the Quant-iT™ PicoGreen™ dsDNA broad range DNA assay. Percent DNA loading was calculated as 100×(signal of sample with Triton-X−signal of sample in DI water)/(signal of sample with Triton-X).

On to `CCCCC/C=C\C/C=C\CCCCCCCCC1(CCCCCCCC/C=C\C/C=C\CCCCC)OCC(CCN(C)C)O1` (stereo not shown) [DLin-KC2-DMA, 2,2-dilinoleyl-4-dimethylaminoethyl-[1,3]-dioxolane], for which the transfection efficiency result in the data set on primary human T cells (Example 4a, alkyl chain linker length, Table E14 formulations) was “higher transfection efficiency compared to the other lipids; also recorded: highest transfection efficiency”; in the data set on primary human T cells (Example 4b, heterocyclic headgroup, Table E16 formulations), “highest”. Moreover, in data set [1], the DNA loading entry is recorded as “consistently high DNA loading”.
Regarding `CCCCC/C=C\C/C=C\CCCCCCCC(=O)OCCCCN(CCCCOC(=O)CCCCCCC/C=C\C/C=C\CCCCC)CCCCC1NC(=O)C(CCCCN(CCCCOC(=O)CCCCCCC/C=C\C/C=C\CCCCC)CCCCOC(=O)CCCCCCC/C=C\C/C=C\CCCCC)NC1=O` (stereo not shown) [OF-C4-Deg-Lin], in the data set on primary human T cells (F9 and F9A formulations with various ionizable lipids, 24 hours), the “transient transfection in T cells (GFP expression)” value is reported as “highest levels of transient transfection”.

The record behind these values is patent US20250382640A1, “LIPID NANOPARTICLES FOR DELIVERY OF NUCLEIC ACIDS” (Juno Therapeutics, Inc., priority 2022, published 2025).
